Measured values reported in patent publication US9204653B2, “5-fluoro pyrimidine derivatives” (DOW AGROSCIENCES LLC, priority 2008, dated 2015).
Read-outs that look alike come from different tables or passages of the source.

Tested on: Mycosphaerella graminicola; Anamorph: Septoria tritici; Bayer Code SEPTTR
Experiment: Leaf blotch of wheat, foliar fungicide treatment, one day protectant (1DP) or three day curative (3DC)
Format: in vivo, Septoria tritici on wheat plants (variety Yuma)
Conditions: Zymoseptoria tritici
[1] = 24 h, one day protectant (1DP), percent disease control rating, read-out: SETTTR 1DP 25 ppm
[2] = 24 h, one day protectant (1DP), percent disease control rating, read-out: SEPTTR 1DP 100 ppm
[3] = 72 h, three day curative (3DC), percent disease control rating, read-out: SEPTTR 3DC 25 ppm
[4] = 72 h, three day curative (3DC), percent disease control rating, read-out: SEPTTR 3DC 100 ppm
[5] = 24 h, one day protectant (1DP), rating of percent disease control, read-out: SETTTR 1DP 25 ppm
[6] = 24 h, one day protectant (1DP), rating of percent disease control, read-out: SEPTTR 1DP 100 ppm
[7] = 72 h, three day curative (3DC), rating of percent disease control, read-out: SEPTTR 3DC 25 ppm
[8] = 72 h, three day curative (3DC), rating of percent disease control, read-out: SEPTTR 3DC 100 ppm

Row | SMILES | pest or weed control at 25 ppm [1] | pest or weed control at 100 ppm [2] | pest or weed control at 25 ppm [3] | pest or weed control at 100 ppm [4] | pest or weed control at 25 ppm [5] | pest or weed control at 100 ppm [6] | pest or weed control at 25 ppm [7] | pest or weed control at 100 ppm [8]
1 | CCc1ccc(COc2ncc(F)c(N)n2)cc1 [Compound 171] | 76 to 100% | 76 to 100% | 76 to 100% | 76 to 100% | – | – | – | –
2 | COCCOc1ncc(F)c(N)n1 [Compound 172] | 0 to 25% | 0 to 25% | 0 to 25% | 0 to 25% | – | – | – | –
3 | CC(Oc1ncc(F)c(N)n1)c1ccc(C(C)(C)C)cc1Cl (stereo not drawn) [Compound 173] | 51 to 75% | 76 to 100% | 0 to 25% | 51 to 75% | – | – | – | –
4 | COCCOC(=O)Nc1nc(OCc2ccccc2)ncc1F [Compound 174] | 76 to 100% | 76 to 100% | 76 to 100% | 76 to 100% | – | – | – | –
5 | CC(Oc1ncc(F)c(N)n1)c1ccc(-c2ccc(Br)cc2)cc1 (stereo not drawn) [Compound 175] | 76 to 100% | 76 to 100% | 0 to 25% | 0 to 25% | – | – | – | –
6 | CCOC(=O)COC(=O)Nc1nc(OCc2ccc(C)cc2)ncc1F [Compound 176] | 51 to 75% | 76 to 100% | 76 to 100% | 76 to 100% | – | – | – | –
7 | N#Cc1cccc(COc2ncc(F)c(/N=C/N3CCOCC3)n2)c1 [Compound 177] | 76 to 100% | 76 to 100% | 76 to 100% | 76 to 100% | – | – | – | –
8 | Nc1nc(OCc2ccc3c(c2)OCO3)ncc1F [Compound 178] | 76 to 100% | 76 to 100% | 76 to 100% | 76 to 100% | – | – | – | –
9 | CC(=O)Nc1nc(OCc2ccc(C)cc2)ncc1F [Compound 179] | 76 to 100% | 76 to 100% | 76 to 100% | 76 to 100% | – | – | – | –
10 | Nc1nc(O/N=C2\CCc3ccccc32)ncc1F [Compound 181] | 76 to 100% | 76 to 100% | 76 to 100% | 76 to 100% | – | – | – | –
11 | CNC(=S)Nc1nc(OCc2ccc(C)cc2)ncc1F [Compound 182] | – | – | – | – | 76 to 100% | 76 to 100% | 76 to 100% | 76 to 100%
12 | N#Cc1cccc(COc2ncc(F)c(NC(=O)NCc3ccccc3)n2)c1 [Compound 183] | – | – | – | – | 0 to 25% | 0 to 25% | 0 to 25% | 0 to 25%
13 | Nc1nc(OCc2ccc(C(F)(F)F)nc2)ncc1F [Compound 184] | – | – | – | – | 76 to 100% | 76 to 100% | 51 to 75% | 76 to 100%
14 | COc1cc(F)c(COc2ncc(F)c(N)n2)cn1 [Compound 185] | – | – | – | – | 76 to 100% | 76 to 100% | 76 to 100% | 76 to 100%
15 | CCCNC(=O)Nc1nc(OCc2ccc(F)cc2)ncc1F [Compound 186] | – | – | – | – | 51 to 75% | 51 to 75% | 0 to 25% | 0 to 25%
16 | Cc1cccc(COc2ncc(F)c(N)n2)c1 [Compound 188] | – | – | – | – | 76 to 100% | 76 to 100% | 76 to 100% | 76 to 100%
17 | COc1cccc(COc2ncc(F)c(NC(=O)c3ccccc3)n2)c1 [Compound 191] | – | – | – | – | 76 to 100% | 76 to 100% | 76 to 100% | 76 to 100%
18 | CC(=O)OC[C@H]1O[C@@H](Oc2ncc(F)c(N)n2)[C@H](OC(C)=O)[C@@H](OC(C)=O)[C@@H]1OC(C)=O [Compound 192] | – | – | – | – | 76 to 100% | 76 to 100% | 51 to 75% | 76 to 100%
19 | Nc1nc(OCc2ccc(OCc3ccccc3)cc2)ncc1F [Compound 193] | – | – | – | – | 76 to 100% | 76 to 100% | 76 to 100% | 76 to 100%
20 | Nc1nc(OCc2c(F)cc(F)cc2F)ncc1F [Compound 194] | – | – | – | – | 76 to 100% | 76 to 100% | 76 to 100% | 76 to 100%
21 | OCNc1nc(OCc2cccs2)ncc1F [Compound 196] | – | – | – | – | 76 to 100% | 76 to 100% | 76 to 100% | 76 to 100%
